Source: a melting point compilation (Tetko et al.; mined from patent text by program, amines drawn as free bases though some values may be those of a salt)

SMILES	melting point [°C]
CC(=O)OCC(=O)C1C(C)CC2C3CC(Cl)C4=CC(=O)C=CC4(C)C3=CCC21C (stereo not drawn)	181
CNc1cc(NS(=O)(=O)c2ccc(Cl)cc2)nc(NC)n1	272 to 273
Cc1c(C(=O)CN2CCCCC2)c(C)n(C)c1C(=O)c1ccc(Cl)cc1Cl	177 to 179
COc1cc(-c2csc(N)n2)c(OC)cc1C	191 to 192
Cc1nc(Nc2nc3cccc(C)c3[nH]2)nc(O)c1CC(=O)O	> 300
CCOC(=O)c1cnc2c(NC(=O)c3c(Cl)cccc3Cl)cccc2c1COC(C)=O	138 to 142
CCOC(=O)Cc1[nH]c(C(=O)c2ccccc2)c(C)c1C(=O)O	183 to 185
CCCN(CCC)Cc1nnc(-c2ncn3c2CN(C)C(=O)c2c-3ccc(F)c2Cl)o1	128 to 130
CNS(=O)(=O)/C=C/c1ccc2[nH]cc(C3CCN(C)CC3)c2c1	190 to 192
CN(C)C(=O)/C=C/CSc1nc(N)cc(Cl)n1	173 to 176
CCOC(=O)C1=CC(C(=O)c2cc(Cl)ccc2O)=CN2CCc3c([nH]c4ccc(OC)cc34)C12C(=O)OCC (stereo not drawn)	230
O=C(Nc1cc(C(F)(F)F)cc(C(F)(F)F)c1)Nc1cc(C(F)(F)F)ccc1Oc1ccccc1C(=O)O	229 to 231
Cc1cn(C(C)C(=O)N(C)C)nc1-c1ccc(Cl)s1 (stereo not drawn)	112 to 114
O=C1CC(=O)CC(c2cc([N+](=O)[O-])ccc2F)C1	171 to 173
CNC(=O)C1CCCN1S(=O)(=O)c1ccc(N2CCC3(CC2)OCCO3)cc1 (stereo not drawn)	137 to 139
CCOc1cccc2c1c(=O)n(C)c1c(-c3noc(C4CC4)n3)ncn21	195 to 205
CCOCn1c(Oc2cc(C)cc(C)c2)c(CC)c(=O)[nH]c1=O	139 to 140
OC1CSC(Oc2ccc(-c3cncnc3)nc2Cl)C(O)C1O (stereo not drawn)	100
CCc1cc(C#N)ccc1N=C1OCC(C)(C)N1C1CCCC1	112 to 114
CCCOc1ccc(S(=O)(=O)C(C)(C)C)cc1C(N)=O	215 to 218

SMILES	melting point [°C]
NCCc1cccc(N2CCN(c3ccc(CCC(=O)O)cc3)C2=O)c1	> 250
COc1cc(SC)ccc1C(=O)c1cnoc1C1CC1	108
CC(C)(C)CC(C)(C)c1cc(Cc2cc(C(C)(C)C)cc(C(C)(C)C)c2O)c(O)c(-n2nc3ccccc3n2)c1	137
CC(=O)c1ccc(C2CC(C)(C)CC(C)(C)C2)cc1	54
N#Cc1cc(C(=O)NN2CCOCC2)ccc1O	238 to 240
CCCSc1ncc(C(=O)O)n1Cc1ccccc1Cl	158 to 160
CN1Cc2c(-c3nc(CCl)co3)ncn2-c2ccsc2C1=O	200 to 206
CC(C)(C)c1cc(/C=C/C=C/C(=O)NCCN2CCC(c3c[nH]c4ccccc34)CC2)cc(C(C)(C)C)c1O	108 to 115
CCOC(=O)c1cnc2c(OC)csc2c1Cl	135 to 137
CCOC(=O)C(C#N)=C1CCN(c2ccc(OC)cc2)CC1	87
COc1cc(OC)nc(NC(=O)NS(=O)(=O)c2ncccc2CSC)n1	145 to 147
C=CCNC(=O)Nc1nn(Cc2ccccc2)cc1C(=O)OCC	77 to 78
CCC(CC)(c1ccc(F)cc1)c1c[nH]c2c(NS(C)(=O)=O)cccc12	137 to 138
CC(=O)Nc1ccc(Sc2c(N)cc(C(=O)O)cc2S(N)(=O)=O)cc1	207
Cc1nn(-c2ccccn2)cc1CO	116 to 117
O=C(O)c1cccc(C(=O)O)c1Nc1cccc(I)c1	214 to 216
CC(C)(C)NC(=O)[C@@H]1CC(=O)CN1C(=O)OC(C)(C)C	147 to 149
COCn1ncc2cc(C(=O)NN)ccc21	141 to 142
CCC(C)(C)N1C(=O)C2(COc3cc4c(cc32)CCO4)c2ccccc21 (stereo not drawn)	128 to 129
O=C(Nc1ccc(Cl)c(Cl)c1)NS(=O)(=O)c1ccc(Cl)cc1	195 to 196

SMILES	melting point [°C]
CC=C(Cc1ccccc1)NNC(=O)OC(C)(C)C	76 to 79
COc1cc2c(cc1OC)CCC(C(=O)O)=C2	191 to 194
COc1cc2c(=O)n(NS(C)(=O)=O)c(=O)[nH]c2cc1[N+](=O)[O-]	> 280
Sc1nnc(-c2ccc3[nH]ncc3c2)o1	283 to 284
CC(=O)C1C(C(=O)c2ccc(Br)cc2)CC2C3CCC4=CC(=O)C=CC4(C)C3(F)C(O)CC21C (stereo not drawn)	285 to 286
O=c1[nH]c(-c2ccccc2)cn1CCO	203 to 205
COc1cc(C(C)=NN)ccc1OCCCN1CCC(c2noc3cc(F)ccc23)CC1	106 to 108
CSc1nc2c(cc1Cl)N(C(=O)Nc1cccnc1)CC2	266 to 267
CCCCOCC(=O)NNC(=O)N1Cc2ccccc2Oc2ccc(Cl)cc21	93 to 97
Oc1ccc(O)c2nccnc12	234 to 236
O=C(C=Cc1ccc2c(c1)OCO2)c1cccc(OCCCCBr)c1	97 to 98
CC(C)OC(=O)C1CCCN1S(=O)(=O)c1ccc(N2CCC(NCC(O)c3ccc(O)c(NS(C)(=O)=O)c3)CC2)cc1 (stereo not drawn)	52 to 58
Nc1nc(N)nc(-c2cncc(Br)c2)n1	> 260
O=C(O)/C=C(\CC(O)CCCCCCc1ccc(Cl)cc1Cl)C(=O)O (stereo not drawn)	92 to 93
COc1cc(C)nc(NC(=O)NS(=O)(=O)c2cccc3c2S(=O)(=O)C(C)C3)n1 (stereo not drawn)	224 to 226
CCCc1c(OCc2cc(Br)cn3c(=O)c(CCC(=O)O)cnc23)ccc(C(C)=O)c1O	239 to 242
COCC(C)N(C(=O)N(CCCl)N=O)C1(O)C(O)C(CO)OC(OCC(C)C)C1O (stereo not drawn)	66 to 68
Cc1c(C(=O)N[C@H](C)[C@](O)(Cn2cncn2)c2ccc(F)cc2F)cnn1-c1cccc(C(F)(F)F)c1	146 to 147
CCOC(=O)C1=C(O)[C@H](CC2CCCCC2)NC1=O	176 to 180

Other lines, results leading:

melting point [°C]	SMILES
115 to 116	CC(C)Oc1ccc(COc2ccc(CC(=O)O)cc2Cl)cc1
135 to 136	O=C(NCCOc1ccc(CC(Oc2ccc(F)c(F)c2)C(=O)O)cc1)c1ccc(-c2ccccn2)cc1 (stereo not drawn)
220 to 221	COc1ccc(-c2c3ccccc3cc3sc4ccccc4c23)cc1
231	O=C1Nc2ccc(C(O)c3ccc(Cl)cc3)cc2C(c2cccc(Cl)c2)N1 (stereo not drawn)
174	CCc1nnc(-c2ccc([N+](=O)[O-])cc2)n1-c1ccc(OC)cc1
333	Oc1cc(O)nc(-c2ccc(Cl)cc2)n1
148 to 152	CCCCCCCOc1ccc(CNc2ccc(C(=O)O)cc2)cc1
70 to 73	COC(=O)C(Cc1ccc(OS(=O)(=O)C(F)(F)F)cc1)NC(=O)OCc1ccccc1 (stereo not drawn)
135 to 136	O=c1c2ccccc2cc2sccn12
187 to 190	CCNC(=O)c1ccc(-c2ccc3nnn(Cc4ccc5ncccc5c4)c3n2)cc1Cl
158 to 160	CC(C)Oc1cccc(-n2c(NC(=O)Nc3cccc(C(=O)O)c3)nc3ccccc3c2=O)c1
210 to 213	Ic1ccc(Cc2cc(I)c(Cc3ccc(I)cc3)cc2I)cc1
111 to 112	CCOC(=O)CC1c2cc(OC)ccc2N(c2nc(Cl)nc3ccccc23)C1C (stereo not drawn)
202	CN(C)c1cc2c(cc1C(F)(F)F)NC(=O)CC(c1cccc(-c3ccncc3)c1)=N2
145 to 147	Cc1cc(F)c(-n2cnc3ccccc3c2=O)cc1SCC(F)(F)F
201 to 205	O=P1(c2ccc(F)cc2)c2ccccc2CN1c1ccc(Br)cc1 (stereo not drawn)
161 to 162	COc1ccc(S(=O)(=O)NCc2ccc(O)cc2)cc1
146	c1ccc(Nc2ccc(-c3ccc(N(c4ccc(-c5ccccc5)cc4)c4ccc(-c5ccccc5)cc4)cc3)cc2)cc1
278	COc1cccc(-c2c3cccc(OC(C)=O)c3c(OC(C)=O)c3c(OC(C)=O)cccc23)c1
232 to 233	CS(=O)(=O)c1cncc(-c2nc(=O)c3ccccc3s2)n1

melting point [°C]	SMILES
195 to 196	CC(=O)COc1ccc(N2N=C3c4cc(F)ccc4CCC3CC2=O)cc1 (stereo not drawn)
224	NS(=O)(=O)c1cccc(-c2cccc(-c3nc(-c4ccc(C(F)(F)F)cc4F)cc(C(F)(F)F)n3)c2)c1
171 to 175	O=C(Nc1ccc(C(F)(F)F)cc1)c1ccccc1NCc1ccncc1
168 to 170	CCOc1nc2cccc(C(=O)OC)c2n1Cc1ccc(-c2ccccc2C#N)cc1
145	CC(=O)c1nnn(C[C@@H]2C[C@@H](S)CN2S(=O)(=O)c2ccc3ccccc3c2)c1C
65 to 67	Cc1ccccc1Nc1ccccc1C=C(Br)Br
97	[N-]=[N+]=CC(=O)C(Cc1ccc(F)cc1)NC(=O)OCc1ccccc1 (racemic)
105 to 107	O=S(=O)(Nc1cccc(CCOCc2ccc(-c3cccc(Cl)c3)cc2)c1)C(F)(F)F
203 to 204	COc1cc(C(=N)NO)ccc1-c1cc(-c2ccc(C(=N)NO)cc2OC)on1
179 to 181	CCOC(=O)C1=C(C)NC(C)=C(C(=O)OCC)C1c1ccccc1/C=C/c1ccc(OC)cc1
177 to 178	COc1ccc(-c2cc(O)ccc2-c2ncnc(-c3ccccc3)n2)cc1
128 to 130	N#Cc1ccc(OCc2ccsc2)cc1OC(CCC(=O)O)c1c(F)cccc1Cl (racemic)
193 to 195	O=c1[nH]ncc(Cl)c1-c1ccccc1
213 to 215	COc1cc(OCc2c(C)noc2C)c(C=CC(=O)c2ccc(C(=O)O)cc2)cc1-c1cccs1
121 to 124	COC(=O)c1ccc(SC(Cn2ccnc2)c2ccc(Cl)cc2Cl)cc1 (stereo not drawn)
110 to 114	CS(=O)(=O)c1ccc(-c2cnn(-c3cccc(Cl)c3)c(=O)c2Sc2ccccn2)cc1
233 to 234	Cn1c2sc(C(=O)O)cc2c2cccc(Cl)c21
226	Cc1cc(C(=O)O)n(-c2ccc(C=Cc3ccccc3)c(C#N)c2)n1
124 to 125	O=C(COc1cccc2cccnc12)c1ccccc1
